Molecular target: T1, active p38 alpha enzyme (Upstate Biotechnology) (Homo sapiens, UniProt Q16539)
T1 construct: purchased Upstate Biotechnology
Test: p38α biochemical assay (ATP turnover, luminescent detection, Cambrex PKlight)
Settings: p38α biochemical assay, Table 1 Biological Activity
Outline: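 Measures total ATP turnover by luminescence after human p38α phosphorylates full MapkapK2 protein. Final ATP is 1.4 uM, and incubation runs 2 hours at 30C. The buffer includes 100 mM MgCl2, 4 mM CaCl2 and 1 mg/ml BSA.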

T1 sequence (Q16539 whole entry): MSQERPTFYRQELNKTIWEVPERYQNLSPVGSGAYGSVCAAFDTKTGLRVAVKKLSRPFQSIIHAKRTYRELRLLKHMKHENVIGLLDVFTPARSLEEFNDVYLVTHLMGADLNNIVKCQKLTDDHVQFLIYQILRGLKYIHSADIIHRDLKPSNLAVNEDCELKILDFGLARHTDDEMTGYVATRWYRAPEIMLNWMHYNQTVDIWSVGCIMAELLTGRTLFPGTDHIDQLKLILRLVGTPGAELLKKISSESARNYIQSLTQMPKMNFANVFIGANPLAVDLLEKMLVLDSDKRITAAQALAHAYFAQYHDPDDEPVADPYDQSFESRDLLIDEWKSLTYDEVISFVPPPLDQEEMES

Row | SMILES | IC50 [nM]
1 | CC(C)CC(NC(=O)OC(C)(C)C)C(=O)N1CCN(Cc2nc(-c3ccc(F)cc3)c(-c3nc(C(=O)NC(C)C)cs3)o2)CC1 (stereo not drawn) [Example 566] | > 1000
2 | CC(C)NC(=O)c1csc(-c2oc(CN3CCN(C(=O)C(C)c4cccc(C(=O)c5ccccc5)c4)CC3)nc2-c2ccc(F)cc2)n1 (stereo not drawn) [Example 567] | > 1000
3 | CC(C)NC(=O)c1csc(-c2oc(CN3CCN(C(=O)C(Cc4ccccc4)NC(=O)OC(C)(C)C)CC3)nc2-c2ccc(F)cc2)n1 (stereo not drawn) [Example 568] | > 1000
4 | CC(C)NC(=O)c1csc(-c2oc(CN3CCN(C(=O)C(Cc4ccccn4)NC(=O)OC(C)(C)C)CC3)nc2-c2ccc(F)cc2)n1 (stereo not drawn) [Example 569] | > 1000
5 | CC(C)NC(=O)c1csc(-c2oc(CN3CCN(C(=O)C4Cc5ccccc5CN4C(=O)OC(C)(C)C)CC3)nc2-c2ccc(F)cc2)n1 (stereo not drawn) [Example 570] | > 1000
6 | CC(C)NC(=O)c1csc(-c2oc(CN3CCN(C(=O)C(Cc4ccc(O)cc4)NC(=O)OC(C)(C)C)CC3)nc2-c2ccc(F)cc2)n1 (stereo not drawn) [Example 571] | ≤ 1000
7 | CC(C)NC(=O)c1csc(-c2oc(CN3CCNCC3)nc2-c2ccc(F)cc2)n1 [Example 572] | > 1000
8 | CC(=O)NCc1onc(-c2ccc(F)cc2)c1-c1nc(C(=O)NC(C)C)cs1 [Example 573] | > 1000
9 | CC(C)NC(=O)c1csc(-c2c(-c3ccc(F)cc3)noc2CNC(=O)C=O)n1 [Example 574] | > 1000
10 | CC(C)NC(=O)c1csc(-c2c(-c3ccc(F)cc3)noc2CNC(=O)CC#N)n1 [Example 575] | ≤ 1000
11 | CC(C)NC(=O)c1csc(-c2c(-c3ccc(F)cc3)noc2CNC(=O)C(C)O)n1 (stereo not drawn) [Example 576] | > 1000
12 | CCC(=O)C(=O)NCc1onc(-c2ccc(F)cc2)c1-c1nc(C(=O)NC(C)C)cs1 [Example 577] | > 1000
13 | CC(C)NC(=O)c1csc(-c2c(-c3ccc(F)cc3)noc2CNC(=O)C(C)(C)C)n1 [Example 578] | > 1000
14 | CC(C)CC(=O)NCc1onc(-c2ccc(F)cc2)c1-c1nc(C(=O)NC(C)C)cs1 [Example 579] | > 1000
15 | CC(C)NC(=O)c1csc(-c2c(-c3ccc(F)cc3)noc2CNC(=O)c2cnc[nH]2)n1 [Example 580] | > 1000
16 | CC(C)NC(=O)c1csc(-c2c(-c3ccc(F)cc3)noc2CNC(=O)c2ncc[nH]2)n1 [Example 581] | > 1000
17 | CC(C)NC(=O)c1csc(-c2c(-c3ccc(F)cc3)noc2CNC(=O)C2=CCCC2)n1 [Example 582] | > 1000
18 | CC(C)NC(=O)c1csc(-c2c(-c3ccc(F)cc3)noc2CNC(=O)C(F)(F)F)n1 [Example 583] | ≤ 1000
19 | CC(C)NC(=O)c1csc(-c2c(-c3ccc(F)cc3)noc2CNC(=O)C2CCCO2)n1 (stereo not drawn) [Example 584] | > 1000
20 | CC(=O)NCC(=O)NCc1onc(-c2ccc(F)cc2)c1-c1nc(C(=O)NC(C)C)cs1 [Example 585] | > 1000
21 | CC(C)NC(=O)c1csc(-c2c(-c3ccc(F)cc3)noc2CNC(=O)c2ccccc2)n1 [Example 586] | > 1000

Row | SMILES | IC50 [nM]
22 | CC(C)NC(=O)c1csc(-c2c(-c3ccc(F)cc3)noc2CNC(=O)c2cccnc2)n1 [Example 587] | > 1000
23 | CC(C)NC(=O)c1csc(-c2c(-c3ccc(F)cc3)noc2CNC(=O)c2ccncc2)n1 [Example 588] | > 1000
24 | CC(C)NC(=O)c1csc(-c2c(-c3ccc(F)cc3)noc2CNC(=O)c2ccccn2)n1 [Example 589] | > 1000
25 | CC(C)NC(=O)c1csc(-c2c(-c3ccc(F)cc3)noc2CNC(=O)C(O)CCl)n1 (stereo not drawn) [Example 590] | ≤ 1000
26 | Cc1cc(C(=O)NCc2onc(-c3ccc(F)cc3)c2-c2nc(C(=O)NC(C)C)cs2)n[nH]1 [Example 591] | > 1000
27 | CC(C)NC(=O)c1csc(-c2c(-c3ccc(F)cc3)noc2CNC(=O)c2cn(C)cn2)n1 [Example 592] | > 1000
28 | CC(C)NC(=O)c1csc(-c2c(-c3ccc(F)cc3)noc2CNC(=O)C2CCCCC2)n1 [Example 593] | > 1000
29 | CC(C)NC(=O)c1csc(-c2c(-c3ccc(F)cc3)noc2CNC(=O)c2cscn2)n1 [Example 594] | > 1000
30 | CCOC(=O)CC(=O)NCc1onc(-c2ccc(F)cc2)c1-c1nc(C(=O)NC(C)C)cs1 [Example 595] | > 1000
31 | Cc1cccc(C(=O)NCc2onc(-c3ccc(F)cc3)c2-c2nc(C(=O)NC(C)C)cs2)c1 [Example 596] | > 1000
32 | Cc1ccccc1C(=O)NCc1onc(-c2ccc(F)cc2)c1-c1nc(C(=O)NC(C)C)cs1 [Example 597] | > 1000
33 | Cc1ccc(C(=O)NCc2onc(-c3ccc(F)cc3)c2-c2nc(C(=O)NC(C)C)cs2)cc1 [Example 598] | > 1000
34 | CC(C)NC(=O)c1csc(-c2c(-c3ccc(F)cc3)noc2CNC(=O)c2cccc(O)c2)n1 [Example 599] | > 1000
35 | CC(C)NC(=O)c1csc(-c2c(-c3ccc(F)cc3)noc2CNC(=O)c2ccccc2O)n1 [Example 600] | > 1000
36 | CC(C)NC(=O)c1csc(-c2c(-c3ccc(F)cc3)noc2CNC(=O)c2ccc(F)cc2)n1 [Example 601] | > 1000
37 | CC(C)NC(=O)c1csc(-c2c(-c3ccc(F)cc3)noc2CNC(=O)c2cccc(F)c2)n1 [Example 602] | > 1000
38 | CCCCCCCC(=O)NCc1onc(-c2ccc(F)cc2)c1-c1nc(C(=O)NC(C)C)cs1 [Example 603] | > 1000
39 | CC(C)NC(=O)c1csc(-c2c(-c3ccc(F)cc3)noc2CNC(=O)c2ccc(C#N)cc2)n1 [Example 604] | > 1000
40 | CC(C)NC(=O)c1csc(-c2c(-c3ccc(F)cc3)noc2CNC(=O)c2cccc(C#N)c2)n1 [Example 605] | > 1000
41 | CC(C)NC(=O)c1csc(-c2c(-c3ccc(F)cc3)noc2CNC(=O)/C=C/c2ccccc2)n1 [Example 606] | > 1000
42 | CC(C)NC(=O)c1csc(-c2c(-c3ccc(F)cc3)noc2CNC(=O)c2ccccc2C=O)n1 [Example 607] | > 1000

Continued, values first:

Row | IC50 [nM] | SMILES
43 | > 1000 | CC(C)NC(=O)c1csc(-c2c(-c3ccc(F)cc3)noc2CNC(=O)c2ccc(C=O)cc2)n1 [Example 608]
44 | > 1000 | Cc1ccc(C(=O)NCc2onc(-c3ccc(F)cc3)c2-c2nc(C(=O)NC(C)C)cs2)c(C)c1 [Example 609]
45 | > 1000 | Cc1ccccc1CC(=O)NCc1onc(-c2ccc(F)cc2)c1-c1nc(C(=O)NC(C)C)cs1 [Example 610]
46 | > 1000 | Cc1cccc(C(=O)NCc2onc(-c3ccc(F)cc3)c2-c2nc(C(=O)NC(C)C)cs2)c1C [Example 611]
47 | > 1000 | Cc1ccc(C)c(C(=O)NCc2onc(-c3ccc(F)cc3)c2-c2nc(C(=O)NC(C)C)cs2)c1 [Example 612]
48 | > 1000 | Cc1cc(C)cc(C(=O)NCc2onc(-c3ccc(F)cc3)c2-c2nc(C(=O)NC(C)C)cs2)c1 [Example 613]
49 | > 1000 | Cc1ccc(C(=O)NCc2onc(-c3ccc(F)cc3)c2-c2nc(C(=O)NC(C)C)cs2)cc1C [Example 614]
50 | > 1000 | CCc1ccc(C(=O)NCc2onc(-c3ccc(F)cc3)c2-c2nc(C(=O)NC(C)C)cs2)cc1 [Example 615]
51 | > 1000 | COc1ccc(C(=O)NCc2onc(-c3ccc(F)cc3)c2-c2nc(C(=O)NC(C)C)cs2)cc1 [Example 616]
52 | > 1000 | Cc1cccc(C(=O)NCc2onc(-c3ccc(F)cc3)c2-c2nc(C(=O)NC(C)C)cs2)c1O [Example 617]
53 | > 1000 | CC(C)NC(=O)c1csc(-c2c(-c3ccc(F)cc3)noc2CNC(=O)Cc2ccccc2O)n1 [Example 618]
54 | ≤ 1000 | CC(C)NC(=O)c1csc(-c2c(-c3ccc(F)cc3)noc2CNC(=O)Cc2cccc(O)c2)n1 [Example 619]
55 | > 1000 | Cc1ccc(O)c(C(=O)NCc2onc(-c3ccc(F)cc3)c2-c2nc(C(=O)NC(C)C)cs2)c1 [Example 620]
56 | > 1000 | CC(C)NC(=O)c1csc(-c2c(-c3ccc(F)cc3)noc2CNC(=O)c2cc(O)ccc2O)n1 [Example 621]
57 | > 1000 | CC(C)NC(=O)c1csc(-c2c(-c3ccc(F)cc3)noc2CNC(=O)c2cccc(O)c2O)n1 [Example 622]
58 | > 1000 | CC(C)NC(=O)c1csc(-c2c(-c3ccc(F)cc3)noc2CNC(=O)c2ccc(O)cc2O)n1 [Example 623]
59 | > 1000 | Cc1ccc(C(=O)NCc2onc(-c3ccc(F)cc3)c2-c2nc(C(=O)NC(C)C)cs2)cc1F [Example 624]
60 | > 1000 | Cc1ccc(F)cc1C(=O)NCc1onc(-c2ccc(F)cc2)c1-c1nc(C(=O)NC(C)C)cs1 [Example 625]
61 | > 1000 | CC(C)NC(=O)c1csc(-c2c(-c3ccc(F)cc3)noc2CNC(=O)c2ccccc2Cl)n1 [Example 626]
62 | > 1000 | CC(C)NC(=O)c1csc(-c2c(-c3ccc(F)cc3)noc2CNC(=O)c2ccc(Cl)nc2)n1 [Example 627]
63 | > 1000 | CC(C)NC(=O)c1csc(-c2c(-c3ccc(F)cc3)noc2CNC(=O)c2cccnc2Cl)n1 [Example 628]
64 | > 1000 | CC(C)NC(=O)c1csc(-c2c(-c3ccc(F)cc3)noc2CNC(=O)c2ccnc(Cl)c2)n1 [Example 629]
65 | > 1000 | CC(C)NC(=O)c1csc(-c2c(-c3ccc(F)cc3)noc2CNC(=O)c2cc(Cl)ccn2)n1 [Example 630]
66 | ≤ 1000 | CC(C)NC(=O)c1csc(-c2c(-c3ccc(F)cc3)noc2CNC(=O)c2ccncc2Cl)n1 [Example 631]
67 | > 1000 | CC(C)NC(=O)c1csc(-c2c(-c3ccc(F)cc3)noc2CNC(=O)c2c(F)cccc2F)n1 [Example 632]
68 | > 1000 | CC(C)NC(=O)c1csc(-c2c(-c3ccc(F)cc3)noc2CNC(=O)c2cccc(F)c2F)n1 [Example 633]
69 | > 1000 | CC(C)NC(=O)c1csc(-c2c(-c3ccc(F)cc3)noc2CNC(=O)c2ccc(F)cc2F)n1 [Example 634]
70 | > 1000 | CC(C)NC(=O)c1csc(-c2c(-c3ccc(F)cc3)noc2CNC(=O)c2cc(F)cc(F)c2)n1 [Example 635]
71 | > 1000 | CC(C)NC(=O)c1csc(-c2c(-c3ccc(F)cc3)noc2CNC(=O)c2ccc(F)c(F)c2)n1 [Example 636]
72 | > 1000 | CC(CC(=O)NCc1onc(-c2ccc(F)cc2)c1-c1nc(C(=O)NC(C)C)cs1)CC(C)(C)C (stereo not drawn) [Example 637]
